Measurements from ChEMBL document CHEMBL1201862, “PubChem BioAssay data set” (2004).
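How tested: cells in 96-well plates exposed to compound for 48 hours at five concentrations. GI50 is the concentration that inhibits growth by half.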 The source made the active and inactive calls. No stated cut-off is given here; in the data, active = GI50 up to about 1.1 µM and inactive = higher.

How the values were obtained:
Experiment in all cases: NCI anticancer screen, dose series, 48 h
[1] = tested on: HCT-15
[2] = tested on: A498
[3] = tested on: RPMI-8226
[4] = tested on: SF-539
[5] = tested on: SNB-19
[6] = tested on: LOX IMVI
[7] = tested on: SNB-75
[8] = tested on: EKVX
[9] = tested on: OVCAR-8
[10] = tested on: MOLT-4
[11] = tested on: TK-10
[12] = tested on: SR
[13] = tested on: RXF 393
[14] = tested on: SK-MEL-28
[15] = tested on: KM12
[16] = tested on: NCI-H460
[17] = tested on: CAKI-1
[18] = tested on: HCT-116
[19] = tested on: MDA-MB-435
[20] = tested on: HOP-62

Row | SMILES | GI50 [1] | GI50 [2] | GI50 [3] | GI50 [4] | GI50 [5] | GI50 [6] | GI50 [7] | GI50 [8] | GI50 [9] | GI50 [10] | GI50 [11] | GI50 [12] | GI50 [13] | GI50 [14] | GI50 [15] | GI50 [16] | GI50 [17] | GI50 [18] | GI50 [19] | GI50 [20]
1 | O=C1C=CC2(C=C1)O[C@H](COCc1ccccc1)[C@@H](COCc1ccccc1)O2 | 1.24 µM | 19.9 µM (inactive) | 0.42 µM (active) | 1.97 µM (inactive) | 2.92 µM (inactive) | 1.56 µM (inactive) | 4.54 µM (inactive) | 1.59 µM (inactive) | 0.305 µM (active) | 0.371 µM (active) | 1.6 µM (inactive) | 0.251 µM (active) | 0.2 µM (active) | 1.8 µM (inactive) | 3.49 µM (inactive) | 18.8 µM (inactive) | 2.24 µM (inactive) | 0.235 µM (active) | 2.27 µM (inactive) | 2.23 µM (inactive)
2 | Cc1nnc2n1-c1ccccc1C(=S)N1CSCC21 (centres undefined) | 79.3 µM | > 100 µM (inactive) | > 100 µM (inactive) | – | > 100 µM (inactive) | > 100 µM (inactive) | > 100 µM (inactive) | > 100 µM (inactive) | > 100 µM (inactive) | > 100 µM (inactive) | > 100 µM (inactive) | > 100 µM (inactive) | > 100 µM (inactive) | > 100 µM (inactive) | > 100 µM (inactive) | > 100 µM (inactive) | > 100 µM (inactive) | > 100 µM (inactive) | > 100 µM (inactive) | > 100 µM (inactive)
3 | OCCC/N=C1N=C(Cl)/C(=C\c2ccccc2)N\1 | > 100 µM | > 100 µM (inactive) | > 100 µM (inactive) | > 100 µM (inactive) | > 100 µM (inactive) | > 100 µM (inactive) | > 100 µM (inactive) | > 100 µM (inactive) | > 100 µM (inactive) | > 100 µM (inactive) | > 100 µM (inactive) | > 100 µM (inactive) | > 100 µM (inactive) | > 100 µM (inactive) | > 100 µM (inactive) | – | > 100 µM (inactive) | > 100 µM (inactive) | > 100 µM (inactive) | –
4 | CC(=O)NCCC1CN(C(=O)/C=C/I)c2ccccc21 (centres undefined) | 4.93 µM | 6.98 µM (inactive) | 0.292 µM (active) | 8 µM (inactive) | 14.8 µM (inactive) | 1.56 µM (inactive) | 16.8 µM (inactive) | 15.4 µM (inactive) | 9.79 µM (inactive) | 3.79 µM (inactive) | 1.42 µM (inactive) | 2.9 µM (inactive) | 5.21 µM (inactive) | 6.04 µM (inactive) | 1.24 µM (inactive) | 4.62 µM (inactive) | 4.75 µM (inactive) | 4.01 µM (inactive) | 5.93 µM (inactive) | 14.2 µM (inactive)
5 | CCOCCOCCOCc1nc(C#N)c(N)o1 | > 100 µM | > 100 µM (inactive) | > 100 µM (inactive) | > 100 µM (inactive) | – | > 100 µM (inactive) | > 100 µM (inactive) | > 100 µM (inactive) | > 100 µM (inactive) | > 100 µM (inactive) | > 100 µM (inactive) | > 100 µM (inactive) | > 100 µM (inactive) | > 100 µM (inactive) | > 100 µM (inactive) | > 100 µM (inactive) | > 100 µM (inactive) | > 100 µM (inactive) | > 100 µM (inactive) | > 100 µM (inactive)
6 | O=c1c2nc[nH]c2n(-c2ccccc2)c(=S)n1-c1ccccc1 | > 100 µM | > 100 µM (inactive) | > 100 µM (inactive) | > 100 µM (inactive) | – | > 100 µM (inactive) | > 100 µM (inactive) | > 100 µM (inactive) | > 100 µM (inactive) | > 100 µM (inactive) | > 100 µM (inactive) | > 100 µM (inactive) | > 100 µM (inactive) | > 100 µM (inactive) | > 100 µM (inactive) | > 100 µM (inactive) | > 100 µM (inactive) | > 100 µM (inactive) | > 100 µM (inactive) | > 100 µM (inactive)
7 | O=C(O)C/N=C(\C(=N\CC(=O)O)c1ccccc1)c1ccccc1 | > 100 µM | > 100 µM (inactive) | 85.7 µM (inactive) | – | > 100 µM (inactive) | > 100 µM (inactive) | > 100 µM (inactive) | > 100 µM (inactive) | > 100 µM (inactive) | > 100 µM (inactive) | > 100 µM (inactive) | > 100 µM (inactive) | > 100 µM (inactive) | > 100 µM (inactive) | > 100 µM (inactive) | > 100 µM (inactive) | > 100 µM (inactive) | > 100 µM (inactive) | > 100 µM (inactive) | > 100 µM (inactive)
8 | CN(C)c1ccc(-c2ccc(N(C)C)c3n[se]nc23)c2n[se]nc12 | > 100 µM | > 100 µM (inactive) | > 100 µM (inactive) | > 100 µM (inactive) | – | > 100 µM (inactive) | > 100 µM (inactive) | > 100 µM (inactive) | > 100 µM (inactive) | > 100 µM (inactive) | > 100 µM (inactive) | > 100 µM (inactive) | > 100 µM (inactive) | > 100 µM (inactive) | > 100 µM (inactive) | > 100 µM (inactive) | > 100 µM (inactive) | > 100 µM (inactive) | > 100 µM (inactive) | > 100 µM (inactive)
9 | O=C1C2CCCCC2C(=O)N1n1c(Cc2ccc(Cl)cc2)n[nH]c1=O (centres undefined) | > 100 µM | > 100 µM (inactive) | > 100 µM (inactive) | > 100 µM (inactive) | > 100 µM (inactive) | > 100 µM (inactive) | > 100 µM (inactive) | > 100 µM (inactive) | > 100 µM (inactive) | > 100 µM (inactive) | > 100 µM (inactive) | > 100 µM (inactive) | > 100 µM (inactive) | – | > 100 µM (inactive) | > 100 µM (inactive) | > 100 µM (inactive) | > 100 µM (inactive) | > 100 µM (inactive) | > 100 µM (inactive)
10 | CCC1CC(C)C(O)/C=C/C=C/CC(C)OC(=O)CC(O)C(OC)C1OC1OC(C)CC(O)(C(C)=O)C1O (centres undefined) | 23.9 µM | 77.4 µM (inactive) | 48.8 µM (inactive) | 78.9 µM (inactive) | 19.3 µM (inactive) | > 100 µM (inactive) | 15.5 µM (inactive) | 57.7 µM (inactive) | > 100 µM (inactive) | 21.7 µM (inactive) | 60.8 µM (inactive) | 14.1 µM (inactive) | 44.7 µM (inactive) | > 100 µM (inactive) | 35.2 µM (inactive) | – | 13.1 µM (inactive) | > 100 µM (inactive) | > 100 µM (inactive) | 39.7 µM (inactive)
11 | N#Cc1c(C#N)c(-c2ccccc2)n(-c2ccccc2)c1N | > 100 µM | > 100 µM (inactive) | 5.87 µM (inactive) | 20.2 µM (inactive) | 30.4 µM (inactive) | > 100 µM (inactive) | 1.27 µM (inactive) | 73.8 µM (inactive) | > 100 µM (inactive) | 60.3 µM (inactive) | > 100 µM (inactive) | 73.8 µM (inactive) | 41.6 µM (inactive) | – | > 100 µM (inactive) | – | > 100 µM (inactive) | 5.51 µM (inactive) | > 100 µM (inactive) | 84.9 µM (inactive)
